Source: article PMC11999280, “Design and screening of novel endosomal escape compounds that enhance functional delivery of oligonucleotides in vitro” (Molecular Therapy. Nucleic Acids, 2025)

Tests used:
Assay type in all cases: cell-based
[1] = tested on: mCherry-GAL9 expressing 16HBE cells; assay: GAL9 recruitment assay, 16HBE; settings: calculated mean from >3 independent exp.
In short: (§1)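 Using cell lines stably carrying mCherry-GAL9, dose-response treatment begins 24 h after seeding; fixed (4% paraformaldehyde) and Hoechst-stained cells are imaged by confocal microscopy and GAL9 structures counted. Each treatment runs in duplicate wells over three experiments.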

[2] = tested on: mCherry-GAL9 expressing HEK293 cells; assay: GAL9 recruitment assay, HEK293; settings: calculated mean from >3 independent exp.
In short: as §1

[3] = tested on: mCherry-GAL9 expressing HeLa cells; assay: GAL9 recruitment assay, HeLa; settings: calculated mean from >3 independent exp.
In short: as §1

[4] = tested on: mCherry-GAL9 expressing HepG2 cells; assay: GAL9 recruitment assay, HepG2; settings: calculated mean from >3 independent exp.
In short: as §1

[5] = tested on: mCherry-GAL9 expressing HuH7 cells; assay: GAL9 recruitment assay, HuH7; settings: calculated mean from >3 independent exp.
In short: as §1

[6] = tested on: mCherry-GAL9 expressing NCI-H358 cells; assay: GAL9 recruitment assay, NCI-H358; settings: calculated mean from >3 independent exp.
In short: as §1

[7] = tested on: mCherry-GAL9 expressing SHSY5Y cells; assay: GAL9 recruitment assay, SHSY5Y; settings: calculated mean from >3 independent exp.
In short: as §1

[8] = tested on: mCherry-GAL9 expressing U2OS cells; assay: GAL9 recruitment assay, U2OS; settings: calculated mean from >3 independent exp.
In short: as §1

[9] = tested on: HeLa_Luc705 cells (pLuc/705 splice-switching reporter); assay: Functional 705-SSO delivery, luciferase splice-switching assay; settings: for Luciferase expression compared to reference: mean from >3 independent experiments
In short: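 Splice correction was measured as firefly luciferase luminescence in Triton X-100 lysates taken 24 h after enhancer treatment. Before treatment, the 10,000 cells/well had spent 24 h with 1–2 μM 705-SSO (2′-OMe, phosphorothioate). For comparison, 100–200 nM SSO was lipofected with LF2000.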

[10] = tested on: cell lines carrying an mCherry-GAL9-reporter; assay: GAL9 puncta formation upon EEE dose escalation (images); settings: dose escalation 0.31 to 10 μM
Procedure: We further studied endosomal leakage by quantifying GAL9 recruitment upon EEE dose escalation, from 0.31 to 10 μM. For this purpose, we used cell lines carrying an mCherry-GAL9-reporter, where endosomal rupture could be quantified by measuring GAL9 clustering as a puncta event representative of endosomal remodeling.
Experiments assessing GAL9 localization as an indicator for endosomal remodeling were performed as previously described[15] using 8× stablemCherry-GAL9 expressing cell lines, SHSY5Y, U2OS, 16HBE, NCI-H358, HuH7, HepG2, HEK293, and HeLa. For mCherry-GAL9 recruitment, 3,000 or 6,500 cells/well (depending upon cell line) were seeded into 384-well CellCarrier Ultra plates 24 h prior to treatment (PerkinElmer, catalog no. 6007558). An Echo 655T acoustic dispenser (Labcyte) was used for EEE dose-response preparation by transferring to the cell plate. At assay endpoints, cells were PBS washed, 4% paraformaldehyde fixed at room temperature […] (VWR, catalog no. 9713.1000), and nuclei stained with PBS +1 μg/mL Hoechst 33342 (Thermo Fisher Scientific, catalog no. H21492).
Imaging was performed using a spinning-disk confocal microscope (Yokogawa: CV8000) with a ×20w objective (numerical aperture 1.0). Cells and mCherry-GAL9 structure identification and quantification were done using Columbus image-analysis software (PerkinElmer version 2.9.0). […]

For COc1nn(C2CCN(C)CC2)cc1Nc1ncc(F)c(-n2ccc3c(C#N)cccc32)n1 [EEE8], the “Gal9 response compared to reference” value ([1]; EEE 0.31 µM) was 0.011, the “Gal9 response compared to reference” value ([1]; EEE 0.62 µM) was 0.035 and the “Gal9 response compared to reference” value ([1]; EEE 1.25 µM) was 0.180. For the same molecule, the “Gal9 response compared to reference” value ([1]; EEE 2.5 µM) was 0.503, the “Gal9 response compared to reference” value ([1]; EEE 5 µM) was 0.638 and the “Gal9 response compared to reference” value ([1]; EEE 10 µM) was 0.492. The “Gal9 response compared to reference” value ([2]; EEE 0.31 µM) was 0.027, the “Gal9 response compared to reference” value ([2]; EEE 0.62 µM) was 0.052 and the “Gal9 response compared to reference” value ([2]; EEE 1.25 µM) was 0.309. The “Gal9 response compared to reference” value ([2]; EEE 2.5 µM) was 0.657, the “Gal9 response compared to reference” value ([2]; EEE 5 µM) was 0.605 and the “Gal9 response compared to reference” value ([2]; EEE 10 µM) was 0.329. For the same molecule, the “Gal9 response compared to reference” value ([3]; EEE 0.31 µM) was 0.004, the “Gal9 response compared to reference” value ([3]; EEE 0.62 µM) was 0.009 and the “Gal9 response compared to reference” value ([3]; EEE 1.25 µM) was 0.105. The “Gal9 response compared to reference” value ([3]; EEE 2.5 µM) was 0.319, the “Gal9 response compared to reference” value ([3]; EEE 5 µM) was 0.459 and the “Gal9 response compared to reference” value ([3]; EEE 10 µM) was 0.198. The “Gal9 response compared to reference” value ([4]; EEE 0.31 µM) was 0.007, the “Gal9 response compared to reference” value ([4]; EEE 0.62 µM) was 0.008 and the “Gal9 response compared to reference” value ([4]; EEE 1.25 µM) was 0.011. The “Gal9 response compared to reference” value ([4]; EEE 2.5 µM) was 0.075, the “Gal9 response compared to reference” value ([4]; EEE 5 µM) was 0.511 and the “Gal9 response compared to reference” value ([4]; EEE 10 µM) was 0.529. The “Gal9 response compared to reference” value ([5]; EEE 0.31 µM) was 0.010, the “Gal9 response compared to reference” value ([5]; EEE 0.62 µM) was 0.016 and the “Gal9 response compared to reference” value ([5]; EEE 1.25 µM) was 0.078. The “Gal9 response compared to reference” value ([5]; EEE 2.5 µM) was 0.313, the “Gal9 response compared to reference” value ([5]; EEE 5 µM) was 0.228 and the “Gal9 response compared to reference” value ([5]; EEE 10 µM) was 0.160. The “Gal9 response compared to reference” value ([6]; EEE 0.31 µM) was 0.017, the “Gal9 response compared to reference” value ([6]; EEE 0.62 µM) was 0.032 and the “Gal9 response compared to reference” value ([6]; EEE 1.25 µM) was 0.148. For the same molecule, the “Gal9 response compared to reference” value ([6]; EEE 2.5 µM) was 0.553, the “Gal9 response compared to reference” value ([6]; EEE 5 µM) was 0.623 and the “Gal9 response compared to reference” value ([6]; EEE 10 µM) was 0.457. The “Gal9 response compared to reference” value ([7]; EEE 0.31 µM) was 0.014, the “Gal9 response compared to reference” value ([7]; EEE 0.62 µM) was 0.082 and the “Gal9 response compared to reference” value ([7]; EEE 1.25 µM) was 0.694. For the same molecule, the “Gal9 response compared to reference” value ([7]; EEE 2.5 µM) was 0.629, the “Gal9 response compared to reference” value ([7]; EEE 5 µM) was 0.567 and the “Gal9 response compared to reference” value ([7]; EEE 10 µM) was 0.278. The “Gal9 response compared to reference” value ([8]; EEE 0.31 µM) was 0.012, the “Gal9 response compared to reference” value ([8]; EEE 0.62 µM) was 0.013 and the “Gal9 response compared to reference” value ([8]; EEE 1.25 µM) was 0.029. For the same molecule, the “Gal9 response compared to reference” value ([8]; EEE 2.5 µM) was 0.234, the “Gal9 response compared to reference” value ([8]; EEE 5 µM) was 0.490 and the “Gal9 response compared to reference” value ([8]; EEE 10 µM) was 0.563. For the same molecule, the “Luciferase expression compared to reference” value ([9]; HeLa-Luc705 + 1 µM SSO, EEE 0.5 µM) was 0.717, the “Luciferase expression compared to reference” value ([9]; HeLa-Luc705 + 1 µM SSO, EEE 2 µM) was 2.253 and the “Luciferase expression compared to reference” value ([9]; HeLa-Luc705 + 1 µM SSO, EEE 4 µM) was 11.227. For the same molecule, the “Luciferase expression compared to reference” value ([9]; HeLa-Luc705 + 1 µM SSO, EEE 5 µM) was 31.147, the “Luciferase expression compared to reference” value ([9]; HeLa-Luc705 + 2 µM SSO, EEE 5 µM) was 52.876 and the “EEE dose required to show splice-switching above 10-fold normalized to SSO only” value ([9]; dose-response, 1 μM SSO) was 4.5 μM. The “EEE concentration with clear GAL9 puncta formation” value [10] was no less than 1.25 µM.
